37 molecules from US6472391B2, “Nitrogen-containing heterocyclic compounds” (Millennium Pharmaceuticals, Inc., priority 1996, dated 2002) can be followed below.

Molecule `COc1cc2ncnc(N3CCN(C(=S)Nc4ccc(F)cc4)CC3)c2cc1OC` [Compound 37, 4-(6,7-Dimethoxy-4-quinazolinyl)-N-(4-fluorophenyl)-1-piperazinethiocarboxamide] registered a melting point of 212 to 217 °C.

Turning to `COc1cc2ncnc(N3CCN(C(=S)Nc4cccc(C#N)c4)CC3)c2cc1OC` [Compound 238, N-(3-Cyanophenyl)-4-(6,7-dimethoxy-4-quinazolinyl)-1-piperazinethiocarboxamide], the melting point was in the range of 169 to 170 °C.

Molecule `O=C(Nc1ccc(Oc2ccccc2)cc1)N1CCN(c2ccnc3c(Cl)cccc23)CC1` [Compound 412, 4-(8-Chloro-4-quinolyl)-N-(4-phenoxyphenyl)-1-piperazinecarboxamide] gave a melting point of 174 to 175 °C.

As to `COc1cc2ncnc(N3CCN(C(=O)Nc4cccc(Cl)c4)CC3)c2cc1OC` [Compound 39, N-(3-Chlorophenyl)-4-(6,7-dimethoxy-4-quinazolinyl)-1-piperazinecarboxamide], the melting point is 223 to 224 °C.

As to `COC(=O)c1sccc1NC(=S)N1CCN(c2ncnc3cc(OC)c(OC)cc23)CC1` [Compound 260, 4-(6,7-Dimethoxy-4-quinazolinyl)-N-(2-methoxycarbonyl-3-thienyl)-1-piperazinethiocarboxamide], the melting point was 226 to 228 °C.

In turn, `COc1cc2ncnc(N3CCCN(C(=S)NCc4cccnc4)CC3)c2cc1OC.Cl.Cl` gave a melting point of 177 to 183 °C.

Consider `COc1cc2ncnc(N3CCN(C(=S)NCc4ccco4)CC3)c2cc1OC` [Compound 94, 4-(6,7-Dimethoxy-4-quinazolinyl)-N-furfuryl-1-piperazinethiocarboxamide], for which the melting point is 189 to 190 °C.

In the case of `COc1cc2ncnc(N3CCN(C(=S)Nc4ccc(C#N)cc4)CC3)c2cc1OC` [Compound 85, N-(4-Cyanophenyl)-4-(6,7-dimethoxy-4-quinazolinyl)-1-piperazinethiocarboxamide], the melting point lay within 247 to 252 °C.

As for `COc1cc2ncnc(N3CCN(C(=S)NCc4ccc(C)cc4)CC3)c2cc1OC` [Compound 147, 4-(6,7-Dimethoxy-4-quinazolinyl)-N-(4-methylbenzyl)-1-piperazinethiocarboxamide], the melting point is 202 to 204 °C.

`COc1cc2ncnc(N3CCN(C(=O)Nc4ccc(-n5cccc5)cc4)CC3)c2cc1OC` [Compound 280, 4-(6,7-Dimethoxy-4-quinazolinyl)-N-[4-(1-pyrrolyl)phenyl]-1-piperazinecarboxamide]: the melting point lay within 224 to 226 °C.

Turning to `COc1cc2ncnc(N3CCN(C(=S)NCc4ccc(Br)cc4)CC3)c2cc1OC` [Compound 185, N-(4-Bromobenzyl)-4-(6,7-dimethoxy-4-quinazolinyl)-1-piperazinethiocarboxamide], the melting point lay within 217 to 218 °C.

`COc1cc2ncnc(N3CCN(C(=O)Nc4ccc(Cl)cc4)CC3)c2cc1OC` [Compound 40, N-(4-Chlorophenyl)-4-(6,7-dimethoxy-4-quinazolinyl)-1-piperazinecarboxamide] yielded a melting point of 217 to 219 °C.

`COc1cc2ncnc(N3CCN(C(=O)NCc4ccc(N(C)C)cc4)CC3)c2cc1OC` [Compound 223, 4-(6,7-Dimethoxy-4-quinazolinyl)-N-(4-dimethylaminobenzyl)-1-piperazinecarboxamide] returned a melting point of 188 to 190 °C.

The molecule `COc1cc2ncnc(N3CCN(C(=S)Nc4ccc(Cc5ccncc5)cc4)CC3)c2cc1OC` [Compound 282, 4-(6,7-Dimethoxy-4-quinazolinyl)-N-[4-(4-picolyl)phenyl]-1-piperazinethiocarboxamide] came in with a melting point of 198 to 200 °C.

In turn, `COc1cc2nc(-c3ccccc3)nc(N3CCN(C(=O)Nc4ccc([N+](=O)[O-])cc4)CC3)c2cc1OC` [Compound 111, 4-(6,7-Dimethoxy-2-phenyl-4-quinazolinyl)-N-(4-nitrophenyl)-1-piperazinecarboxamide] had a melting point of 156 to 157 °C.

`CCn1c(=O)n(CC)c2cc3c(N4CCN(C(=O)Nc5ccc(Oc6ccccc6)cc5)CC4)nnc(Cl)c3cc21` [Compound 421, 4-(5-Chloro-1,3-diethyl-1,3-dihydro-2-oxo-2H-imidazo[4,5-g]phthalazin-8-yl)-N-(4-phenoxyphenyl)-1-piperazinecarboxamide] displayed a melting point of 172 to 173 °C.

As for `COc1cc2ncnc(N3CCN(C(=S)N[C@@H](C)c4ccccc4)CC3)c2cc1OC` [Compound 129, (S)-4-(6,7-Dimethoxy-4-quinazolinyl)-N-(1-phenylethyl)-1-piperazinethiocarboxamide], the melting point fell in the range of 98 to 100 °C.

In turn, `COc1cc2ccnc(N3CCN(C(=O)Nc4ccc([N+](=O)[O-])cc4)CC3)c2cc1OC` [Compound 113, 4-(6,7-Dimethoxy-1-isoquinolyl)-N-(4-nitrophenyl)-1-piperazinecarboxamide] displayed a melting point of 247 to 248 °C.

`COc1cc2ncnc(N3CCN(C(=S)NC4CCOC4=O)CC3)c2cc1OC` (stereo not shown) [Compound 279, 4-(6,7-Dimethoxy-4-quinazolinyl)-N-(2,3,4,5-tetrahydro-2-oxo-3-furyl)-1-piperazinethiocarboxamide] displayed a melting point of 147 to 148 °C.

On to `COc1cc2ncnc(N3CCN(C(=S)Nc4ccc5c(c4)OCO5)CC3)c2cc1OC` [Compound 68, 4-(6,7-Dimethoxy-4-quinazolinyl)-N-(3,4-methylenedioxyphenyl)-1-piperazinethiocarboxamide], for which the melting point lay in the range of 207 to 211 °C.

In turn, `COc1cc2ncnc(N3CCN(C(=O)Nc4cccc(I)c4)CC3)c2cc1OC` [Compound 186, 4-(6,7-Dimethoxy-4-quinazolinyl)-N-(3-iodophenyl)-1-piperazinecarboxamide] showed a melting point of 205 to 208 °C.

Regarding `O=C(Nc1ccc(Oc2ccccc2)cc1)N1CCN(c2ncnc3c(Cl)cc(Cl)cc23)CC1` [Compound 377, 4-(6,8-Dichloro-4-quinazolinyl)-N-(4-phenoxyphenyl)-1-piperazinecarboxamide], the melting point lay in the range of 195 to 196 °C.

`COc1cc2ncnc(N3CCN(C(=O)Nc4cccc5ccccc45)CC3)c2cc1OC` [Compound 8, 4-(6,7-Dimethoxy-4-quinazolinyl)-N-(1-naphthyl)-1-piperazinecarboxamide] came in with a melting point of 254 to 256 °C.

Turning to `S=C(NCc1ccccc1)N1CCN(c2ncnc3ccccc23)CC1` [Compound 285, N-Benzyl-4-(4-quinazolinyl)-1-piperazinethiocarboxamide], the melting point was 68 to 70 °C.

The molecule `COc1cc2ncnc(N3CCN(C(=S)Nc4cccc(Br)c4)CC3)c2cc1OC` [Compound 181, N-(3-Bromophenyl)-4-(6,7-dimethoxy-4-quinazolinyl)-1-piperazinethiocarboxamide] gave a melting point of 220 to 222 °C.

Turning to `COc1cc2ncnc(N3CCN(C(=O)Nc4ccc(Oc5ccccc5)cc4)CC3)c2cc1OS(C)(=O)=O` [Compound 350, 4-(6-Mesyloxy-7-methoxy-4-quinazolinyl)-N-(4-phenoxyphenyl)-1-piperazinecarboxamide], the melting point is 228 to 229 °C.

`COc1cc2ncnc(N3CCN(C(=O)Nc4ccc(F)cc4F)CC3)c2cc1OC` [Compound 50, N-(2,4-Difluorophenyl)-4-(6,7-dimethoxy-4-quinazolinyl)-1-piperazinecarboxamide] returned a melting point of 174 to 175 °C.

Turning to `COc1cc2ncnc(N3CCN(C(=S)NCC(=O)c4ccccc4)CC3)c2cc1OC` [Compound 445, 4-(6,7-Dimethoxy-4-quinazolinyl)-N-phenacyl-1-piperazinethiocarboxamide], the melting point fell in the range of 99 to 100 °C.

The molecule `S=C(NCc1ccccc1)N1CCN(c2ccnc3ccc(Cl)cc23)CC1` [Compound 400, N-Benzyl-4-(6-chloro-4-quinolyl)-1-piperazinethiocarboxamide] had a melting point of 173 to 174 °C.

For `CCn1c(=O)n(C)c2cc3c(N4CCN(C(=S)NCc5ccccc5)CC4)ncnc3cc21` [Compound 388, N-Benzyl-4-(1,3-dihydro-3-ethyl-1-methyl-2-oxo-2H-imidazo[4,5-g]quinazolin-8-yl)-1-piperazinethiocarboxamide], the melting point is 207 to 208 °C.

`COc1cc2ncnc(N3CCN(C(=S)Nc4cccc(NC(C)=O)c4)CC3)c2cc1OC` [Compound 226, N-(3-Acetamidophenyl)-4-(6,7-dimethoxy-4-quinazolinyl)-1-piperazinethiocarboxamide] gave a melting point of 207 to 208 °C.

For the molecule `CCCn1c(=O)n(CCC)c2cc3c(N4CCN(C(=O)Nc5ccc(Oc6ccccc6)cc5)CC4)ncnc3cc21` [Compound 389, 4-(1,3-Dihydro-1,3-dipropyl-2-oxo-2H-imidazo[4,5-g]quinazolin-8-yl)-N-(4-phenoxyphenyl)-1-piperazinecarboxamide], the melting point lay in the range of 179 to 180 °C.

For the molecule `COc1cc2ncnc(N3CCN(C(=S)Nc4cccc(C(F)(F)F)c4)CC3)c2cc1OC` [Compound 163, 4-(6,7-Dimethoxy-4-quinazolinyl)-N-(3-trifluoromethylphenyl)-1-piperazinethiocarboxamide], the melting point fell in the range of 171 to 172 °C.

Molecule `COc1cc2ncnc(N3CCN(C(=O)N(c4ccccc4)c4ccccc4)CC3)c2cc1OC` [Compound 116, 4-(6,7-Dimethoxy-4-quinazolinyl)-N,N-diphenyl-1-piperazinecarboxamide] showed a melting point of 196 to 197 °C.

As to `COC(=O)c1ccc(NC(=S)N2CCN(c3ncnc4cc(OC)c(OC)cc34)CC2)cc1` [Compound 249, 4-(6,7-Dimethoxy-4-quinazolinyl)-N-(4-methoxycarbonylphenyl)-1-piperazinethiocarboxamide], the melting point was 208 to 209 °C.

In the case of `COc1cc2ncnc(N3CCN(C(=S)Nc4ccc(SC)cc4)CC3)c2cc1OC` [Compound 218, 4-(6,7-Dimethoxy-4-quinazolinyl)-N-(4-methylthiophenyl)-1-piperazinethiocarboxamide], the melting point lay within 214 to 216 °C.

In the case of `COc1cc2ncnc(N3CCN(C(=S)NCc4ccc(N(C)C)cc4)CC3)c2cc1OC` [Compound 224, 4-(6,7-Dimethoxy-4-quinazolinyl)-N-(4-dimethylaminobenzyl)-1-piperazinethiocarboxamide], the melting point was 177 to 178 °C.

What is called melting point is the temperature, or range, at which the solid turns liquid.
